Values quoted from earlier work as cited in US12390432B2, “Methods for treating allan-herndon-dudley syndrome” (PriZm, LLC, priority 2022, dated 2025).

Conditions: literature report, Groeneweg et al. Lancet Diabetes Endocrinol. 2019; cited from earlier work

O=C(O)Cc1cc(I)c(Oc2ccc(O)c(I)c2)c(I)c1 [TRIAC, triiodothyroacetic acid]
thyroxine (T4) serum levels: significantly reduce
